The nature of assay [1]: DPPH test (radical scavenger effect). The format is biochemical. To be noted: for radical scavenging activity (DPPH test), Mean: Example 8 series, in %; for anti-free-radicals effect (% vs negative control): DPPH test. (In general: The DPPH test is a chemical assay of radical scavenging.)
Another assay addresses T1, MMP-2 (Homo sapiens, UniProt P08253).
T1 sequence (P08253 110-660): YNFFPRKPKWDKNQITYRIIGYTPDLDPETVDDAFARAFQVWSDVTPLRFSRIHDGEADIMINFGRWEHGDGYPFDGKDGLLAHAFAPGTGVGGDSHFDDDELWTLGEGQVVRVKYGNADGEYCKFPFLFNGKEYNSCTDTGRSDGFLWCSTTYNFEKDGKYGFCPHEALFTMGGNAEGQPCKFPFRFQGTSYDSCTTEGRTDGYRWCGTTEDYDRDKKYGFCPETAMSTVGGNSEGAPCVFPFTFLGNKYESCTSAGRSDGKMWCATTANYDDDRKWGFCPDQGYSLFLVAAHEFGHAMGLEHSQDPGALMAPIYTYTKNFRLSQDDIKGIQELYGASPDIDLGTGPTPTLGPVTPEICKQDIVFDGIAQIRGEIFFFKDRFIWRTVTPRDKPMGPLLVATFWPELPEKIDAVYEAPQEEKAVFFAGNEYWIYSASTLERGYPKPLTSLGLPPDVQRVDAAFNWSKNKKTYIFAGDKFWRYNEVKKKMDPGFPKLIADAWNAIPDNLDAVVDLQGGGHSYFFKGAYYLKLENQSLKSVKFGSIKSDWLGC
Nature of the assay: Anti-MMP activity, kinetic test with thiopeptide substrate, MMP-2. Type of assay: biochemical. The procedure: (§1) Anti-MMP activity was evaluated on matrix metalloproteases MMP-2 and MMP-12.
(§2) The substrat of MMPs is thiopeptide [Ac-PLG-2mercapto-4-methyl-pentanoyl)-LG-OC2H5] (EnzoLifeSciences, P125-9090). The test is carried out in 96-well plates. Different medium are prepared: A <> containing assay buffer and the substrate—Value obtained with blank was deduced from all other conditions. Positive control, NNGH (EnzoLifeSciences, PI 115-9090), which is metalloproteinase inhibitor, diluted at 1/200 in assay buffer. Untreated control, containing assay buffer, MMP and the substrate: this corresponds to 100% MMP activity.
(§3) Other conditions contain assay buffer, MMP, the substrate and the solution to be tested. After 45 min preincubation at 37° C. (to get interaction between MMP and tested product: tested solution or positive control), substrate is added and plate is immediately placed in Plate reader for kinetic measurement of absorbance at 405 nm (maximum absorbance of coloured product resulting from degradation of substrate by MMP). Full plate is read each minute during 20 minutes. After 20 min, a curve reflecting kinetic evolution of MMPs activity is obtained.
(§4) In the linear phase, the slope of the curve provides with MMP activity. The percentage inhibition was calculated with respect to the untreated control according to the formula:
(§5) Inhibition percentage=100−((slope of tested product/Mean of the untreated control slopes)*100)
(§6) This test was performed on MMP-2 and MMP-12. Tested solution containing Geophila cordifiolia extract was obtained according to example 1c) and tested at different concentration.
(§7) Tests used were performed in the same conditions than above described with Geophila cordifolia. Extract of Geophila repens was obtained according to example 7a) and tested at different concentrations.

For a further assay, the target named is MMP-12 (Homo sapiens, UniProt P39900). Nature of the assay: Anti-MMP activity, kinetic test with thiopeptide substrate, MMP-12. The format is biochemical. How it is done: as §1, §2, §3, §4, §5, §6, §7
MMP-12, sequence (P39900 106-470): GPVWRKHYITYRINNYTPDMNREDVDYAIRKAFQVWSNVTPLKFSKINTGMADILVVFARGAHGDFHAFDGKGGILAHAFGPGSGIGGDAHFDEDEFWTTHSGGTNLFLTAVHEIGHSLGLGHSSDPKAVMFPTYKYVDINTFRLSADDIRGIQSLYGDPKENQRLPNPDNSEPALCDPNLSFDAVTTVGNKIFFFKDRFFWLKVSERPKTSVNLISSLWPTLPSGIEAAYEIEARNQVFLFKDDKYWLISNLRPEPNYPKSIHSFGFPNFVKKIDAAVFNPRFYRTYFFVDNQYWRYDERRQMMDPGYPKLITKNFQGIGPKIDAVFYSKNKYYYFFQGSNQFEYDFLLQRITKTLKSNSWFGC
Assay [2] deals with T2, HLE (Human Leucocyte Elastase) (Homo sapiens, UniProt P08246).
T2 sequence (P08246 30-267): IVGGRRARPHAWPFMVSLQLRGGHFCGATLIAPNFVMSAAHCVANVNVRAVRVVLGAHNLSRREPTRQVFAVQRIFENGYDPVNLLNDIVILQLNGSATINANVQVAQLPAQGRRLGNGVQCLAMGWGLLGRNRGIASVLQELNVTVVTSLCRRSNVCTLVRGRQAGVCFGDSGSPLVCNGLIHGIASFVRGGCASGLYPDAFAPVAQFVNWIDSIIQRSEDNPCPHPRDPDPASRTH
Briefly: HLE test (anti-elastase activity, cleavage of coloured peptide substrate). Type of assay: biochemical. The procedure: The anti-elastase activity was evaluated using HLE (Human Leucocyte Elastase). […] The principle of this test resides in measuring the degree of cleavage of a coloured peptide substrate by HLE.
The tested products were as follows: • the extract of the invention was prepared in accordance with Example 1a) tested at final concentrations of 0.5%, 1%, 2% and 3% (w/w); • a 0.01% (w/w) solution of ursolic acid was used as the positive inhibition control for inhibition; • no solution was used as the negative control (the reaction buffer for the enzyme replaces the tested product).
The percentage inhibition was calculated for each test product with respect to the negative control (=100% activity i.e. 0% inhibition).
as §7

The next assay has as its system type I collagen. Nature of the assay: Fluorescent immunostaining of type I collagen on monolayer cultured fibroblasts. Type of assay: cell-based, human. To be noted: 50 μg/ml. The procedure:
Immunofluorescence makes it possible to observe different markers expressed by cells via the use of antibody recognizing these markers. In first step, cells were fixed in cold methanol for 10 minutes. After washing with PBS, antigenic aspecific sites were then blocked for 1 hour with PBS-BSA 1% solution (Bovine serum albumin). Primary antibody diluted at 1% in PBS/BSA 1% was incubated with cells for 1 hour. On the negative control is added IgG control isotope (instead of primary antibody). The excess of anti-body which has not been attached is removed by 2 washings with PBS. Cells were incubated out of light with a solution of secondary antibodies able to recognize primary antibody. This secondary antibody being linked with fluorochrome (Alexa Fluor 488), it makes it possible to see protein with florescent microscopy. Cells were then gently washed 3 times with PBS, and slides covered with mounting medium containing DAPI (Vector®, Vectashield), a nuclear colouring agent. Slides were stored out of light to maintain fluorescence of fluorochrome and analysed with confocal microscopy. Antibodies used in this test were: • primary antibody: collagen 1: rabbit anti-human type I collagen, polyclonal, diluted 1/200 (Novotech 20111) • primary antibody: Isotype IgG1: rabbit IgG1 isotype, ready to use (Zymed Laboratories 08-6199) • secondary antibody: goat anti-rabbit IgG coupled with Alexa fluor 488, polyclonal, diluted 1/1000 (in Vitrogen A11008) Cells used for immunostaining were obtained from fibroblasts from donor […]. Geophila cordifolia obtained according to example 1c) was tested at 1% (diluted in water). Fluorescent Immunostaining of type I collagen on monolayer cultured fibroblasts treated with vegetal extract obtained from example 1c) (magnification 400×, scale bar=25 μm).

Another assay relates to LOXL. Briefly: Expression of LOXL gene by quantitative RT-PCR in normal human fibroblasts. The format is cell-based. To be noted: IL-1b treated fibroblasts, untreated non-irradiated = 1. The procedure: The expression of genes for elastin and LOXL was measured using quantitative RT-PCR under standard culture conditions or after irradiation with increasing doses of UVB or UVA. Their level of expression has been related to the number of cells using the housekeeping gene actin. Expression of the LOXL gene was also followed by quantitative RT-PCR under non-irradiated conditions after application for 24 hours of a Geophila cordifolia extract obtained according to process 1a) at 1%.
(§8) Normal human fibroblasts (NH F) cultivated in a FGM medium (fibroblast growth medium, Promocell) were exposed to a UV stress. A Fisher Bioblock type UVA or UVB source with an electric power of 0.3 mW/cm^2 was used. The UV dose was monitored using a radiometer (VLX 3W) and a CX-312 probe for UVB or a CX-365 probe for UVA. Various UV irradiation conditions were evaluated: For a wavelength of λ=312 nm (UVB) • UVB 5 mJ/cm^2, the exposure time was 30 seconds; • UVB 10 mJ/cm^2, the exposure time was 1 minute;
(§9) Total RNA from the monolayer culture was extracted with the SV96 Total RNA Isolation System® following the manufacturer's instructions. The total RNA was eluted in 100 μl of nuclease-free water and quantified using a spectrophotometer at 260 nm (Molecular Devices Spectramax 190). […]
A quantity of 50 ng of total RNA was amplified by Real Time RT-PCR (Quantitek Sybr Green® kit). […]

The test system of a further assay is elastin. Nature of the assay: Expression of elastin gene by quantitative RT-PCR in normal human fibroblasts. To be noted: IL-1b treated fibroblasts, untreated non-irradiated = 1. The format is cell-based. How it is done:
Their level of expression has been related to the number of cells using the housekeeping gene actin. Expression of the LOXL gene was also followed by quantitative RT-PCR under non-irradiated conditions after application for 24 hours of a Geophila cordifolia extract obtained according to process 1a) at 1%.
as §8, §9
A quantity of 50 ng of total RNA was amplified by Real Time RT-PCR (Quantitek Sybr Green® kit). The primers used in the RT-PCR experiments (semi-quantitative or real time) were as follows: […]

The nature of assay [3]: Lipid peroxidation test (TBARS assay, UV-induced peroxidation). The format is biochemical. To be noted: 1% (w/w). The procedure:
The radical scavenger effect was evaluated: • using the standard test with DPPH (1,1-diphenyl-2-picrylhydrazyl) the principle of which is the measurement of the bleaching induced in the presence of anti oxidants; • by the lipid peroxidation method. The TBArs technique means that malondialdehyde (MDA), one of the terminal products formed during the decomposition of polyunsaturated fatty acids mediated by free radicals, can be assayed. It is assayed by condensation in an acidic medium with hot thiobarbituric acid (TBA), thereby forming a pink chromogen which absorbs strongly between 530 and 535 nm. […] The intensity of the colour is directly proportional to the quantity of MDA. The inhibition of UV-induced peroxidation during incorporation of an active agent allows its anti-oxidizing potential to be calculated.
A 5% liposomal suspension was prepared in deionized water. […] A “blank” was also deposited on a non-irradiated control plate for the spectrophotometer reading (water), the non-irradiated positive control measurements and the non-irradiated test measurements (active agent tested at different concentrations). […]
The percentage inhibition was calculated for each test product with respect to the negative control (=100% of generated free radicals meaning 0% anti-free-radicals effect)

The mark [4] stands for this setting: NNGH diluted at 1/200 in assay buffer.
The mark [5] stands for this setting: positive control, Example 8 series.

“And” between values parts separate entries of the source, which are not always exact repeats. Equal entries are not always repeated.

In the case of `N[C@@H](CS)C(=O)O` [Cysteine, cysteine], in assay [1] (2.5 mg/l), the “radical scavenging activity (DPPH test), Mean” value was found to be 68.52 and the “anti-free-radicals effect (% vs negative control)” value was determined as 47.6%. Besides, in assay [1] (5 mg/l), the “radical scavenging activity (DPPH test), Mean” value is reported as 79.49 and the “anti-free-radicals effect (% vs negative control)” value was 83.1%.
For the compound `COc1ccc(S(=O)(=O)N(CC(=O)NO)CC(C)C)cc1` [NNGH], the “MMP-2 inhibition, Mean (%)” value on MMP-2 (setting [4]) is given as 73.43^+++ %. Also, the “inhibition of MMP-2 activity (in words)” value at MMP-2 (positive control, 1/200) is “strongly and significantly inhibits”. In addition, the “anti-MMP2 effect, mean” value at MMP-2 (setting [5]) was determined as 62.51. Besides, on MMP-12 (setting [4]), the “MMP-12 inhibition, Mean (%)” value is given as 58.63^+++ %. For the same compound, the “inhibition of MMP-12 activity (in words)” value at MMP-12 (positive control, 1/200) was “strongly and significantly inhibits”. Further, the “anti-MMP 12 effect, mean” value at MMP-12 (setting [5]) came out at 72.5825.
As to `C[C@H]1[C@H](C)CC[C@]2(C(=O)O)CC[C@]3(C)C(=CC[C@@H]4[C@@]5(C)CC[C@H](O)C(C)(C)[C@@H]5CC[C@]43C)[C@H]12` [Ursolic acid, ursolic acid], in assay [2] (0.01% (w/w)), the “HLE inhibition (%)” value is on record as 85%. In assay [2] (0.01%, Example 8 series), the “anti-elastase activity (HLE test), mean” value is recorded as 90.47.
Regarding `O=C1O[C@H]([C@@H](O)CO)C(O)=C1O` [vitamin C], in the assay with type I collagen (day 3), the “anisotropy of collagen type I fibres” value is recorded as “high anisotropy” and the “type I collagen labelling” value was “a fibrillar labelling, being more external to the cell”. For the same compound, in the assay with type I collagen (day 5), the “anisotropy of collagen type I fibres” value is recorded as “anisotropy is increased”; the “type I collagen labelling” value is “labelling is not so intense and fibres are more oriented in one way and thinner”.
“IL-1b: IL-1b treatment group of fibroblasts in Table 6; not described in the method”: the “Gene/actin, LOXL” value in the assay with LOXL (single replicates) is 1.108 and 0.9779 and 1.139 and 1.246. Further, in the assay on LOXL, the “Gene/actin, LOXL, Mean” value amounted to 1.12. Moreover, the “Gene/actin, ELN” value with elastin (single replicates) is 11.02 and 28.48 and 10.07 and 9.393. For the same compound, in the assay with elastin, the “Gene/actin, ELN, Mean” value came out at 14.74.
Consider vitamin E, for which the “anti-free-radicals effect (% vs negative control)” value in assay [3] was determined as 54.7%.
